Measurements: publication PMC9804470, “A Formylglycine‐Peptide for the Site‐Directed Identification of Phosphotyrosine‐Mimetic Fragments” (Chemistry (Weinheim an Der Bergstrasse, Germany), 2022)
“Also recorded” adds a separate entry of the source. *1 amine or outer side, *2 acyl side, *3 side chain or, on linkers, in order; H or OH if unused. [ ]: non-standard residue; d: D form. F2Pmp = N[C@@H](Cc1ccc(C(F)(F)P(=O)(O)O)cc1)C(=O)O; fGly = 2-formylglycine, O=C[C@H](N[*:1])C(=O)[*:2]; Dap = NC[C@H](N)C(=O)O

Experiments:
[1] = biological target: T1, SHP2 (Homo sapiens, UniProt Q06124); assay: Dynamic ligation screening of nucleophilic fragments with formylglycine peptide 3, SHP2; format: biochemical; conditions: 3 100 μM pre-incubated 5 min, fragment 200 μM, 30 min RT before DiFMUP, triplicates
T1 construct: catalytic domain of human SHP2 (amino acids 225–541); His10 (N); made in house; host or cells: E. coli B21 (DE3)
T1 sequence (Q06124 225-541): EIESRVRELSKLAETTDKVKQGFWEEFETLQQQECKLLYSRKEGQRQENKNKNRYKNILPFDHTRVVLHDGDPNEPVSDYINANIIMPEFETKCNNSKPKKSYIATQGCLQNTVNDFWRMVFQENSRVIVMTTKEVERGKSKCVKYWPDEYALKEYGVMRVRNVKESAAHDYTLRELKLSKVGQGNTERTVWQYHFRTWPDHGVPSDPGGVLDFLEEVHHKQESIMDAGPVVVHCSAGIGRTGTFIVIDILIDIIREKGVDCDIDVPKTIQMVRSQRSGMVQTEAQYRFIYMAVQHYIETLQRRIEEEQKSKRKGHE
Experimental: (§1) Enzyme activity assays of SHP2 and PTP1B: The catalytic activity of SHP2 catalytic domain and PTP1B were monitored using the fluorogenic substrate DiFMUP (6,8‐difluoro‐4‐methylumbelliferyl phosphate). Phosphatase reactions were performed at room temperature in 384‐well black plate, clear flat bottom, low flange, non‐binding surface (Corning, Cat# 3766) using a final volume of 20 μL and the following assay buffer conditions: 50 mM MOPS, pH=6.5, 200 mM NaCl, 50 μM TCEP, 0.03 % Tween‐20 (freshly added prior to each measurement). Test compounds were dissolved in DMSO or buffer at stock concentrations of 50, 20 or 10 mM and serially diluted. Enzyme (5 nM PTP1B or 2.5 nM SHP2 catalytic domain) and different concentrations of the tested compounds were incubated in buffer for 30–60 min at room temperature. Measurements were performed with a final concentration of 2.5 % DMSO unless stated otherwise at 37 °C and were performed in triplicate. Enzymatic reactions were started by adding DiFMUP (Invitrogen, cat# D6567) concentrations matching the experimentally determined KM values of the enzymes of 67 μM (PTP1B) or 72 μM (SHP2). Samples were excited at a wavelength of 360 nm and emitted fluorescence was recorded at 460 for 10 min using a microplate reader (infinite M1000 Pro, Tecan). Initial slope of fluorescence was determined in triplicate and IC50 values were calculated with GraphPad Prism 5. Determined IC50 values were converted into the corresponding KI values applying the Cheng Prusoff equation KI =IC50 /(1+[S]/KM ).
(§2) Dynamic ligation screening of nucleophilic fragments with 3: Under assay conditions described above, PTP1B or SHP2 were pre‐incubated with 3 (100 μM) for 5 min. Subsequently, (200 μM) of the respective fragments were added and the resulting mixtures were incubated for 30 min at RT, prior to DiFMUP addition.

[2] = biological target: T2, PTP1B (Homo sapiens, UniProt P18031); assay: Dynamic ligation screening of nucleophilic fragments with formylglycine peptide 3, PTP1B; format: biochemical; conditions: 3 100 μM pre-incubated 5 min, fragment 200 μM, 30 min RT before DiFMUP, triplicates
T2 construct: catalytic domain of human PTP1B (amino acids 1–321); His7 (N, cleaved yes); made in house; host or cells: E. coli Rosetta (DE3)
T2 sequence (P18031 1-321): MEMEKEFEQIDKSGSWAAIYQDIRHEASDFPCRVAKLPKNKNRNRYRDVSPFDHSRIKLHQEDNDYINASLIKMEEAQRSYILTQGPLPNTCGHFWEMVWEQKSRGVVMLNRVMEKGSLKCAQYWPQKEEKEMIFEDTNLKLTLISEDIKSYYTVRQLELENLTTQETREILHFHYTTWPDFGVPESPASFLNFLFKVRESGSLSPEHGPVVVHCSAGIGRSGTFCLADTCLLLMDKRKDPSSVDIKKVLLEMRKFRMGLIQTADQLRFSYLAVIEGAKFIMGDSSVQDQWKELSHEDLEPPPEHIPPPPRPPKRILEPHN
Experimental: as §1, §2

[3] = biological target: T2, PTP1B; assay: Apparent KI values of in situ ligation products of 3 (time- and concentration-dependent assay); format: biochemical; conditions: inhibition at different concentrations, with and without 3 / fragment (Figure 5C, D)
Experimental: as §1
Subsequently, over the course of 60 mins (every 15 min), 2 equivalents of fragment F1 were added to each of the different concentrations of 3 at RT, prior to DiFMUP addition.
Subsequently, fragment F2 was added at three different concentrations (1 equiv, 2 equiv, and 4 equiv) and the resulting mixtures were incubated for 30 min at RT, prior to DiFMUP addition.

[4] = system: pancreas cancer; conditions: in combination with a kinase inhibitor; cited from earlier work
Excerpt: (§3) Our next goal was to validate the three phosphotyrosine mimetics F1, F2, and F4 identified by fragment ligation screening as substructures of heterocyclic and cell‐penetrating SHP2‐inhibitors. The potent SHP2‐specific inhibitor GS‐493 was selected as a reference compound. […] In combination with a kinase inhibitor, GS‐493 ...

[5] = system: SHP2 signaling; conditions: cited from earlier work
Excerpt: as §3

[6] = system: mammary gland tumors; conditions: endogeneous cancer model; cited from earlier work
Excerpt: as §3

[7] = system: HGF‐induced tyrosine phosphorylation of ERK 1/2 in HeLa cells; assay: Western blot of p-ERK in HGF-stimulated HeLa cells; format: cell-based; conditions: 1 h treatment, Western blot, DMSO control
Experimental: Cellular experiments: HeLa cells were cultivated in DMEM buffer with 10 % FCS in 75 cm^2 cell culture flasks at 37 °C, 5 % CO2. At confluency of about 75 %, cells were seeded in a density of 250,000 cells/mL in 6‐well plates and incubated for 24 h. Subsequently, medium was removed and replaced by DMEM buffer with 0.1 % BSA (1 mL per well) and incubated for another 16 h. Hepatocyte growth factor (HGF, 20 ng/well) and test compounds in different final concentrations (1 μL, in DMSO) were added. Control wells received the same amount of DMSO (final concentration 0.1 %) or no addition. Plates were incubated for 1 h, then washed with cold PBS and shaken with lysis buffer (mPer reagent ThermoScientific # 78501 with 1 mM NaF, 2 mM Na3VO4, 25× protease inhibitor) for 5 min. Cell lysates were transferred to Eppendorf cups and centrifuged at 4 °C with 10,000 g for 10 min. […] The blot was incubated with anti‐phospo‐ERK as primary antibody (Cell Signaling # 9106, dilution 1 : 2000 in TBS‐Tween/ 2 % BSA) overnight at 4 °C, washed 3×5 min with TBS‐Tween, and incubated with anti‐mouse IgG‐hrp as secondary antibody (Santa Cruz # sc2031, 1 : 6000 in TBS‐ Tween/ 2 % BSA, RT, 1.5 h). The blot was again washed 3×5 min with TBS‐Tween and imaged with the ECL system (ThermoScientific # 34080) at Syngene PXi Imager. From the same lysis sample, under the same conditions, ERK 1/2 and β‐tubulin were blotted. For β‐tubulin, the antibody incubation time was adjusted to 2 h at RT.

[8] = biological target: T3, peptide 15 (Homo sapiens, UniProt P00533, not fully specified (residue 5); also: formylglycine reductively aminated with 4-amino-phenyl-acetic acid F1, place not in chain); assay: DiFMUP enzyme inhibition assay
T3 chain: Ac-DADEYL-NH2

[9] = biological target: T4, peptide 18 (Homo sapiens, UniProt P00533); assay: DiFMUP enzyme inhibition assay
T4 chain: Ac-DADE[Dap](4‑trifluoromethylsulfonylamido‑phenyl)L-NH2

[10] = biological target: T5, peptide 16 (Homo sapiens, UniProt P00533, not fully specified (residue 5); also: formylglycine reductively aminated with aryl amine F4, place not in chain); assay: DiFMUP enzyme inhibition assay
T5 chain: Ac-DADEYL-NH2

[11] = biological target: T6, formylglycine peptide 3 (Homo sapiens, UniProt P00533); assay: DiFMUP enzyme inhibition assay
T6 chain: Ac-DADE[fGly]L-NH2

[12] = biological target: T7, peptide 2 Ac-DADE(PDFM-F)L-NH2 (Homo sapiens, UniProt P00533); assay: DiFMUP enzyme inhibition assay
T7 chain: Ac-DADE[F2Pmp]L-NH2

[13] = biological target: T8, peptide 17 (Homo sapiens, UniProt P00533, not fully specified (residue 5); also: reduced Knoevenagel product of formylglycine with barbituric acid, place not in chain); assay: DiFMUP enzyme inhibition assay
T8 chain: Ac-DADEYL-NH2

Question: Which results are given for `Nc1ccc(OCC(=O)O)cc1` [Compound F4, 4‐amino‐phenoxyacetic acid]?
Answer: Enhancement of inhibition of SHP2 by fragment in combination with peptide 3 (fragment ligation assay) [1]: over‐additive inhibition; also recorded: super‐additive inhibition; Enhancement of inhibition of PTP1B by fragment in combination with peptide 3 (fragment ligation assay) [2]: over‐additive inhibition; also recorded: super‐additive inhibition

Question: With `Nc1ccc(S(F)(F)(F)(F)F)cc1` [Compound F7, 4‐amino‐phenyl‐pentafluorosulfate] as the molecule, how does the “Effect of fragment ligation with 3 on inhibition curves of PTP1B” value [3] read?
Answer: identical inhibition curves

Question: And the “Enhancement of inhibition of PTP1B by fragment in combination with peptide 3 (fragment ligation assay)” value [2]?
Answer: inactive

Question: Which results are given for `O=C1/C(=N\Nc2ccc(S(=O)(=O)O)cc2)C(c2ccc([N+](=O)[O-])cc2)=NN1c1ccc([N+](=O)[O-])cc1` [GS‐493]?
Answer: Effect on pancreas cancer [4]: able to suppress pancreas cancer; Block of SHP2 signaling in cancer cells and animal models [5]: able to block SHP2 signaling; Effect on development of mammary gland tumors [6]: able to block the development of mammary gland tumors; Effect on HGF‐induced tyrosine phosphorylation of ERK 1/2 [7]: decreased

B1: PTP1B 1-321 (protein)
chain: MEMEKEFEQIDKSGSWAAIYQDIRHEASDFPCRVAKLPKNKNRNRYRDVSPFDHSRIKLHQEDNDYINASLIKMEEAQRSYILTQGPLPNTCGHFWEMVWEQKSRGVVMLNRVMEKGSLKCAQYWPQKEEKEMIFEDTNLKLTLISEDIKSYYTVRQLELENLTTQETREILHFHYTTWPDFGVPESPASFLNFLFKVRESGSLSPEHGPVVVHCSAGIGRSGTFCLADTCLLLMDKRKDPSSVDIKKVLLEMRKFRMGLIQTADQLRFSYLAVIEGAKFIMGDSSVQDQWKELSHEDLEPPPEHIPPPPRPPKRILEPHN
Question: For B1, which Ki [8] is on record?
Answer: 138 µM

Question: What about the Ki [9] of the same molecule?
Answer: 202 µM

Question: What about the Ki [10] of the same molecule?
Answer: 213 µM

Question: And the Ki [11]?
Answer: 484 µM

Question: And the Ki [12]?
Answer: 1.4 µM

Question: What about the Ki [13] of the same molecule?
Answer: 123 µM
